In patent US20210388213A1, “PROCESS FOR PRODUCING AQUEOUS COATING COMPOSITIONS” (CELANESE INTERNATIONAL CORPORATION, priority 2018, published 2021):

Test system: mixture of bacteria, yeasts and fungi/moulds (inoculum)
Assay: Challenge test of preserved polymer dispersions with mixed inoculum (repeated up to six cycles)
Format: cell-based
Settings: at concentrations of <15 ppm in products such as aqueous coating compositions
Experimental: 100 g of the dispersions listed above are weighed into sterile sample bottles. To each sample 1% by weight of an inoculum is added and incubated at 30° C. for 7 days. As inoculum, a suspension in water which contains the following concentrations is used: Bacteria: 8.0×10^8−2.0×10^9 cfu/cm^3 Yeasts/moulds: 8.0×10^6−2.0×10^7 cfu/cm^3 A mixture of the following bacteria, yeasts and fungi/moulds are used for the preparation of the inoculum: Bacteria mixture of: Aeromonas hydrophila (sorbia, BAM 485) Alcaligenes faecalis (BAM 486) Providencia rettgeri (BAM 488) Pseudomonas aeruginosa (BAM 489) Pseudomonas sp (BAM 490) Escherichia coli (DSM 13631) Staphylococcus aureus (DSM 346) Micrococcus Luteus (DSM 20030) Yeast mixture of: Rhodotorula rubra (DSM 13621) Saccharomyces cerevisiae (DSM 13622) Issatchenkia orientalis (DSM 6128) Filamentous Fungy mixture of: Aspergillus terréus (DSM 13630) Geotrichum candidum (DSM 13629) Fusarium Solani (DSM 13635) After 7 days the microbial contamination remaining in the samples is determined by streaking the samples out onto Trypticase Sel Agar (TSA) and on Malt Extra Agar (MEA) as nutrient media and incubated at 30° C. for 7 days. The level of growing is measured by using a rating of 0 for no growth up to a rating of 3 for full growth. The test is passed in case no growth is observed which means a rating of 0 on TSA and MEA nutrient media. […]

Question: `Cn1sc(Cl)cc1=O` [CIT, 5-chloro-2-methyl-4-isothiazolin-3-one] was tested. Which “protection against microbial attack” value did it give?
Answer: not sufficient
